Laboratory results reported in patent publication US9944608B2, “Herbicidal pyridazinone derivatives” (Syngenta Participations AG, priority 2014, dated 2018).

Experiments:
Experiment in all cases: B1 Post-emergence efficacy, glasshouse pot test
Format in all cases: in vivo
Settings in all cases: post-emergence application, 1000 g/ha, evaluated after 13 days
[1] = test system: Alopecurus myosuroides (ALOMY)
Method: (§1) B1 Post-Emergence Efficacy Seeds of a variety of test species are sown in standard soil in pots:—Solanum nigrum (SOLNI), Amaranthus retoflexus (AMARE), Setaria faberi (SETFA), Alopecurus myosuroides (ALOMY), Echinochloa crus-galli (ECHCG), Ipomoea hederacea (IPOHE), Lolium perenne (LOLPE). After 8 days cultivation (post-emergence) under controlled conditions in a glasshouse (at 24/16° C., day/night; 14 hours light; 65% humidity), the plants are sprayed with an aqueous spray solution derived from the formulation of the technical active ingredient in acetone/water (50:50) solution containing 0.5% Tween 20 (polyoxyethelyene sorbitan monolaurate, CAS RN 9005-64-5). Compounds are applied at 1000 g/ha. The test plants are then grown in a glasshouse under controlled conditions in a glasshouse (at 24/16° C., day/night; 14 hours light; 65% humidity) and watered twice daily. After 13 days, the test is evaluated for the percentage damage caused to the plant. The biological activities are assessed on a five point scale (5=80-100%; 4=60-79%; 3=40-59%; 2=20-39%; 1=0-19%). A blank value in the table is indicative that the compound was not tested on that species.

[2] = test system: Amaranthus retoflexus (AMARE)
Method: as §1

[3] = test system: Echinochloa crus-galli (ECHCG)
Method: as §1

[4] = test system: Ipomoea hederacea (IPOHE)
Method: as §1

Setaria faberi (SETFA) = test system: Setaria faberi (SETFA)
Method: as §1

Solanum nigrum (SOLNI) = test system: Solanum nigrum (SOLNI)
Method: as §1

Lolium perenne (LOLPE) = test system: Lolium perenne (LOLPE)
Method: as §1

Row | SMILES | ALOMY: percentage damage caused to the plant (five point scale) [1] | AMARE: percentage damage caused to the plant (five point scale) [2] | ECHCG: percentage damage caused to the plant (five point scale) [3] | IPOHE: percentage damage caused to the plant (five point scale) [4] | SETFA: percentage damage caused to the plant (five point scale) (Setaria faberi (SETFA)) | SOLNI: percentage damage caused to the plant (five point scale) (Solanum nigrum (SOLNI)) | LOLPE: percentage damage caused to the plant (five point scale) (Lolium perenne (LOLPE))
1 | CC1=NN(C)C(=O)C(c2c(Cl)ccc(Cl)c2OCc2ccccc2)C1=O (stereo not drawn) [Compound 1.001, 4-(2-benzyloxy-3,6-dichloro-phenyl)-2,6-dimethyl-pyridazine-3,5-dione] | 4 (4=60-79%) | 5 (5=80-100%) | 5 (5=80-100%) | 5 (5=80-100%) | 5 (5=80-100%) | 5 (5=80-100%) | 
2 | CSc1nn(C)c(=O)c(-c2c(Cl)ccc(Cl)c2OCc2ccccc2)c1O [Compound 1.086] |  | 3 (3=40-59%) | 2 (2=20-39%) | 5 (5=80-100%) | 4 (4=60-79%) | 5 (5=80-100%) | 4 (4=60-79%)
3 | CN(C)c1nn(C)c(=O)c(-c2c(Cl)ccc(Cl)c2OCc2ccccc2)c1O [Compound 1.087] |  | 5 (5=80-100%) | 5 (5=80-100%) | 5 (5=80-100%) | 5 (5=80-100%) | 5 (5=80-100%) | 5 (5=80-100%)
